# Experimental data published in paper PMC6102129, “Epigallocatechin-3-gallate remodels apolipoprotein A-I amyloid fibrils into soluble oligomers in the presence of heparin” (The Journal of Biological Chemistry, 2018).
# Biological target: T1, monomeric apoA-I (Homo sapiens, UniProt P02647)
# T1 construct: gene APOA1; mature apoA-I residues 3-243 from E. coli BL21(DE3), His tag removed by formic acid at Asp2-Pro3; soluble, lipid-free, monomeric, pH 7
# Test: WaterLOGSY NMR
# Format: binding
# Conditions: 36 μM apoA-I, phosphate buffer pH 7, no heparin
# T1 sequence (P02647 27-267): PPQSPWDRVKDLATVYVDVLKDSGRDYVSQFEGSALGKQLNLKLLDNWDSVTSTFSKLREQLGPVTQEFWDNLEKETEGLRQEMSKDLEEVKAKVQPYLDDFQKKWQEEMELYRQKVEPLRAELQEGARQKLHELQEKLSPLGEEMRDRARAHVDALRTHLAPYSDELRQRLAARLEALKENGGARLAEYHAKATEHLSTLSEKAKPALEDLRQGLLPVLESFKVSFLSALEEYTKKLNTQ
compound,measurement,value
"O=C(O[C@@H]1Cc2c(O)cc(O)cc2O[C@@H]1c1cc(O)c(O)c(O)c1)c1cc(O)c(O)c(O)c1 [compound 5, EGCG]",WaterLOGSY NMR,peaks from EGCG broaden and take the opposite sign to the TSP peak
